Laboratory results as given in the NIST ThermoML archive (doi:10.1021/je7007654).

Assay: xn = mol fraction of the nth substance listed
Settings: 101 kPa, Liquid; for viscosity: Capillary tube (Ostwald / Ubbelohde) method; for speed of sound: Sing-around technique in a fixed-path interferometer

CC(C)CCCC(C)CCCC(C)CCCCC(C)CCCC(C)CCCC(C)C (stereo not given) [2,6,10,15,19,23-hexamethyltetracosane] + CCCCO
Settings | speed of sound, 298.15 K [m/s] | speed of sound, 303.15 K [m/s] | speed of sound, 308.15 K [m/s] | viscosity, 298.15 K [mPa·s] | viscosity, 303.15 K [mPa·s] | viscosity, 308.15 K [mPa·s]
x2 = 0 | 1381.9 | 1364.1 | 1346.5 | 28.26 | 22.09 | 17.77
x2 = 0.0451 | 1379.5 | 1361.7 | 1343 | 26.66 | 20.88 | 16.81
x2 = 0.1077 | 1376.1 | 1358.3 | 1340.2 | 24.69 | 19.42 | 15.62
x2 = 0.1346 | 1374.8 | 1356.5 | 1338.9 | 23.92 | 18.86 | 15.16
x2 = 0.1888 | 1371.7 | 1353.8 | 1335.9 | 22.48 | 17.78 | 14.29
x2 = 0.2231 | 1369.7 | 1351.8 | 1333.9 | 21.62 | 17.14 | 13.79
x2 = 0.3059 | 1365.1 | 1347.1 | 1329.3 | 19.67 | 15.64 | 12.62
x2 = 0.4052 | 1358.8 | 1340.8 | 1322.8 | 17.39 | 13.9 | 11.38
x2 = 0.5039 | 1350.9 | 1332.6 | 1314.8 | 15.11 | 12.14 | 9.903
x2 = 0.6118 | 1340.5 | 1322.5 | 1304.6 | 12.47 | 10.12 | 8.307
x2 = 0.7056 | 1328.8 | 1310.9 | 1293.1 | 10.06 | 8.276 | 6.824
x2 = 0.7998 | 1312.5 | 1294.8 | 1277.1 | 7.573 | 6.348 | 5.267
x2 = 0.8546 | 1299.5 | 1281.8 | 1264.2 | 6.128 | 5.2 | 4.344
x2 = 0.9035 | 1284.3 | 1266.8 | 1249.1 | 4.873 | 4.186 | 3.527
x2 = 0.9669 | 1258.5 | 1241.4 | 1224.4 | 3.325 | 2.912 | 2.497

mass density [kg/m3], Vibrating tube method
Settings | 298.15 K | 303.15 K | 308.15 K
x2 = 0 | 805.122 | 801.912 | 798.709
x2 = 0.0451 | 804.881 | 801.658 | 798.397
x2 = 0.1077 | 804.649 | 801.402 | 798.084
x2 = 0.1346 | 804.573 | 801.318 | 797.991
x2 = 0.1888 | 804.447 | 801.16 | 797.826
x2 = 0.2231 | 804.377 | 801.07 | 797.731
x2 = 0.3059 | 804.273 | 800.898 | 797.543
x2 = 0.4052 | 804.097 | 800.714 | 797.32
x2 = 0.5039 | 803.949 | 800.528 | 797.098
x2 = 0.6118 | 803.817 | 800.347 | 796.857
x2 = 0.7056 | 803.732 | 800.179 | 796.621
x2 = 0.7998 | 803.836 | 800.194 | 796.558
x2 = 0.8546 | 803.989 | 800.335 | 796.66
x2 = 0.9035 | 804.336 | 800.708 | 796.979
x2 = 0.9669 | 805.126 | 801.896 | 798.06

CCCCCCCCCCCCCCCC [hexadecane] + CCCCO
Settings | mass density, 298.15 K [kg/m3] | mass density, 303.15 K [kg/m3] | mass density, 308.15 K [kg/m3] | speed of sound, 298.15 K [m/s] | speed of sound, 303.15 K [m/s] | speed of sound, 308.15 K [m/s] | viscosity, 298.15 K [mPa·s] | viscosity, 303.15 K [mPa·s] | viscosity, 308.15 K [mPa·s]
x2 = 0 | 770.456 | 766.981 | 763.52 | 1338.6 | 1320 | 1301.7 | 3.041 | 2.706 | 2.409
x2 = 0.0899 | 770.953 | 767.402 | 763.863 | 1332.4 | 1313.4 | 1294.9 | 2.957 | 2.6 | 2.302
x2 = 0.1048 | 771.053 | 767.499 | 763.961 | 1331.2 | 1312.2 | 1293.8 | 2.937 | 2.582 | 2.287
x2 = 0.1516 | 771.517 | 767.916 | 764.36 | 1328.2 | 1309.2 | 1290.3 | 2.899 | 2.546 | 2.254
x2 = 0.2017 | 772.074 | 768.482 | 764.874 | 1324.9 | 1305.8 | 1287.3 | 2.846 | 2.515 | 2.223
x2 = 0.2494 | 772.705 | 769.093 | 765.462 | 1321.9 | 1302.9 | 1284.4 | 2.811 | 2.478 | 2.189
x2 = 0.3382 | 774.083 | 770.439 | 766.796 | 1315.8 | 1296.9 | 1278.2 | 2.753 | 2.432 | 2.146
x2 = 0.4147 | 775.524 | 771.883 | 768.201 | 1310.6 | 1291.6 | 1273.1 | 2.704 | 2.394 | 2.112
x2 = 0.5057 | 777.651 | 773.952 | 770.24 | 1303.9 | 1285.5 | 1266.9 | 2.665 | 2.344 | 2.068
x2 = 0.5845 | 779.95 | 776.223 | 772.472 | 1297.6 | 1279.2 | 1260.9 | 2.635 | 2.306 | 2.029
x2 = 0.698 | 784.249 | 780.452 | 776.653 | 1287.4 | 1269.2 | 1251.1 | 2.594 | 2.256 | 1.99
x2 = 0.7945 | 789.246 | 785.434 | 781.597 | 1276.8 | 1258.5 | 1240.6 | 2.568 | 2.223 | 1.96
x2 = 0.8497 | 792.847 | 789.093 | 785.172 | 1269.5 | 1251.4 | 1233.7 | 2.558 | 2.218 | 1.953
x2 = 0.8963 | 796.346 | 792.717 | 788.76 | 1262.7 | 1244.8 | 1227.4 | 2.551 | 2.219 | 1.948
x2 = 0.953 | 801.232 | 797.973 | 794.054 | 1252.3 | 1235.8 | 1218.5 | 2.556 | 2.228 | 1.953
